Laboratory results published in article PMC9369311, “Examination of Intracellular GPCR-Mediated Signaling with High Temporal Resolution” (International Journal of Molecular Sciences, 2022).
Where “and” joins values, the source holds several entries; their conditions need not be identical. Identical values can stand only once.

Biological target: T1, DmOctβ1 receptor (Drosophila melanogaster, UniProt Q9VCZ3)
T1 construct: expressed in transfected cells; host or cells: flpTM cells (HEK293 flpIn, Invitrogen #750-07, carrying the CNGA2 variant)
T1 sequence (Q9VCZ3 1-508): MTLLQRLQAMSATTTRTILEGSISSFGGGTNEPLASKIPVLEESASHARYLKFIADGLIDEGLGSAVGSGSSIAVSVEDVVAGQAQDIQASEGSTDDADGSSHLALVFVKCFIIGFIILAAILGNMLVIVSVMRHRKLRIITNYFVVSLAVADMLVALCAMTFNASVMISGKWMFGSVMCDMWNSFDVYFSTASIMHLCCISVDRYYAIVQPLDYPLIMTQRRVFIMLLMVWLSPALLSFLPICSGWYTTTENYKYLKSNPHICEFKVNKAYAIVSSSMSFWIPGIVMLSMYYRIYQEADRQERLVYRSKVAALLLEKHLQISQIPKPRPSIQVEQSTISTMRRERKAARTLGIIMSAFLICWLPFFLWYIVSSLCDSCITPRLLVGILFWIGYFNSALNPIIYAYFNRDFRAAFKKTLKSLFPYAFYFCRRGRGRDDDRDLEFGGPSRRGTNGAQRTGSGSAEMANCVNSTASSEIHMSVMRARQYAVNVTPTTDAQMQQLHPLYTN
Test: Stopped-flow Ca2+ fluorescence measurements, flpTM-DmOctβ1 cells, octopamine
Type: cell-based
Protocol: In successive stopped-flow measurements, the flpTM-DmOctβ1 cells loaded with Fluo-4 were stimulated with increasing octopamine (1 nM–3 µM) and NKH477 (100 nM–300 µM) concentrations. The fluorescence intensities were monitored over 80 s and 100 s, respectively (Figure 4A1,B1). The fluorescence intensities increased and finally reached a plateau with increasing concentrations of both of the ligands. However, the saturating ligand concentrations differed strongly between octopamine (≥300 nM) and NKH477 (≥100 µM). By plotting the maximal changes in fluorescence (ΔF/F0) against ligand concentrations, concentration–response curves were generated and EC50 values were calculated (Figure 4C). […] As observed for the DmOctα1B cell lines (see Figure 3D), the signal response times of flpTM-DmOctβ1 cells were faster at higher ligand concentrations (Figure 4A2,B2). In Figure 4D, the time until the signals were detected (for details, see Materials and Methods, Section 4.4) are plotted for the ligand concentrations covering the calculated EC50 value (dynamic range) and for saturating concentrations (saturating range). The signal response times of the flpTM-DmOctβ1 cells for octopamine were in the range of 30 s (dynamic range) and 6 s (saturating range), whereas the signal detection upon NKH477 application was observed after 50 s (dynamic range) and 16 s (saturating range). The signal response times were about three- to five-fold faster at the saturating concentrations in comparison to the octopamine and NKH477 concentrations in the dynamic range.
As described for the Fluo-4-loaded flpTM-DmOctβ1 cells, similar experiments were performed with the flpTM-DmOctβ1-GCaMP3.0 cells (Figure 5). The cells were successively mixed with increasing concentrations of octopamine (30 pM–100 nM) or NKH477 (30 nM–100 µM) and the fluorescence intensities were recorded over 100 s. For both of the ligands, increasing ligand concentrations led to an increase in the fluorescence emission finally reaching a plateau (Figure 5A1,B1).
For the stopped-flow measurements, the SFM-400 system (BioLogic, Münster, Germany) was used. The main component of the stopped-flow setup is the SFM-400 module with four 10 mL syringes, which can be filled by external valves. The syringes are driven by step motors. The reactants can be mixed in three individual mixing chambers (M1–M3). The volume between M1 and M2 is 21 µL, and 31 µL between M2 and M3. The observation chamber is a quartz cuvette (FC-15) with a reaction volume of 31 µL, installed behind M3. To avoid fluctuations of the reaction mixture in the cuvette, which might lead to noisy and inconsistent signals, a hard stop valve located behind the cuvette can be closed after injection of the reactants. The stopped-flow module is controlled via a MPS-60 control unit (BioLogic). Data acquisition and operation of the system were performed with the Bio-Kine 32 v4.74 software (BioLogic).
The reactions in the cuvette were analyzed via the changes in the fluorescence. A 150 W Xe/Hg-lamp (ALX-220; BioLogic) was used as a light source for the excitation. The excitation light was guided via a light guide towards the cuvette. To determine the wavelength of the excitation light, a 482 nm bandpass filter (482/35 nm BrightLine® single-band bandpass filter; Semrock, Rochester, NY, USA) was used. A heat protection filter (3 mm; KG1, Schott; Mainz, Germany) was placed between the Xe/Hg-lamp and the excitation filter. The fluorescence was detected with a photomultiplier (PMS 200, BioLogic) installed rectangularly to the light path of the excitation light. Between the cuvette and the photomultiplier tube a 535 nm bandpass emission filter (XF3007 535AF35; Horiba, Oberursel, Germany) was placed to select for the emission light being detected by the photomultiplier. A voltage of 600 V was applied to the photomultiplier.
The fluorescence measurements were performed either directly with the cells expressing GCaMP3.0 or after loading the cells with Fluo-4-AM. […]

Signal Response Time (dynamic range (concentrations around EC50), flpTM-DmOctβ1 cells loaded with Fluo-4): ~30 s | Signal Response Time (saturating concentration, flpTM-DmOctβ1-GCaMP3.0 cells, mean ± SEM): ~6 s | Signal Response Time (saturating concentration, flpTM-DmOctβ1-GCaMP3.0 cells, mean ± SEM, listed as Octopamine): 6.00 ± 0.20 s | Signal Response Time (saturating concentration, flpTM-DmOctβ1 cells loaded with Fluo-4, mean ± SEM): ~6 s | Signal Response Time (saturating concentration, flpTM-DmOctβ1 cells loaded with Fluo-4, mean ± SEM, listed as Octopamine): 6.00 ± 0.13 s | Signal Response Time (saturating ligand concentration, flpTM-DmOctβ1 cell lines, Fluo-4 and GCaMP3.0): 6 s and ≈ 6 s | EC50 (stopped-flow, flpTM-DmOctβ1-GCaMP3.0 cells, mean ± SEM): ~1.8 nM and 1.78 nM and 1.8 nM | saturating ligand concentration (stopped-flow, flpTM-DmOctβ1 cells loaded with Fluo-4): ≥ 300 nM | EC50 (stopped-flow, flpTM-DmOctβ1 cells loaded with Fluo-4, mean ± SEM): ~22 nM and 22 nM
SMILES: NCC(O)c1ccc(O)cc1 (stereo not drawn) [octopamine]
